Results reported in patent US7902227B2, “C-7 isoxazolinyl quinolone / naphthyridine derivatives useful as antibacterial agents” (Janssen Pharmaceutica NV., priority 2008, dated 2011).
Converted amounts (≈) assume the structure as drawn.

What was measured:
Assay type in all cases: cell-based
[1] = system: strain C, fluoroquinolone-resistant clinical isolate of Streptococcus pneumoniae; test: In vitro antibacterial activity (MIC), microdilution broth method (NCCLS), strain C; conditions: read-out: In vitro Antibacterial Activity MIC, C
Method: (§1) Minimal inhibitory concentration (MIC) has been an indicator of in vitro antibacterial activity widely used in the art. The in vitro antimicrobial activity of representative compounds of the present invention was determined by the microdilution broth method following the test method from the National Committee for Clinical Laboratory Standards (NCCLS). This method is described in the NCCLS Document M7-A4, Vol. 17, No. 2, “Methods for Dilution Antimicrobial Susceptibility Test for Bacteria that Grow Aerobically—Fourth Edition”, which is incorporated herein by reference.
(§2) In this method two-fold serial dilutions of drug in cation adjusted Mueller-Hinton broth are added to wells in microdilution trays. The test organisms are prepared by adjusting the turbidity of actively growing broth cultures so that the final concentration of test organism after it is added to the wells is approximately 5×10^4 CFU/well.
(§3) Following inoculation of the microdilution trays, the trays are incubated at 35° C. for 16-20 hours and then read. […] The amount of growth in the wells containing the test compound is compared with the amount of growth in the growth-control wells (no test compound) used in each tray. As set forth in Table 4, representative compounds of the present invention were tested against a variety of pathogenic bacteria resulting in a range of activities depending on the organism tested.

[2] = system: strain B, fluoroquinolone-resistant clinical isolate of Streptococcus pneumoniae; test: In vitro antibacterial activity (MIC), microdilution broth method (NCCLS), strain B; conditions: read-out: In vitro Antibacterial Activity MIC, B
Method: as §1, §2, §3

[3] = system: Staphylococcus aureus OC4172; test: In vitro antibacterial activity (MIC), microdilution broth method (NCCLS), strain A; conditions: cation adjusted Mueller-Hinton broth, 35° C., 16-20 hours
Method: as §1, §2, §3

[4] = system: strain D, fluoroquinolone-resistant clinical isolate of Streptococcus pneumoniae; test: In vitro antibacterial activity (MIC), microdilution broth method (NCCLS), strain D; conditions: read-out: In vitro Antibacterial Activity MIC, D
Method: as §1, §2, §3

[5] = system: Streptococcus pneumoniae ATCC 49619; test: In vitro antibacterial activity (MIC), microdilution broth method (NCCLS), strain E; conditions: ATCC49619, 35° C., 16-20 hours
Method: as §1, §2, §3

## NCC1=NOC2CN(c3nc4c(cc3F)c(=O)c(C(=O)O)cn4C3CC3)CC12 (centres unmarked) [ID No. 201, 7-(3-Aminomethyl-3a,4,6,6a-tetrahydro-pyrrolo[3,4-d]isoxazol-5-yl)-1-cyclopropyl-6-fluoro-4-oxo-1,4-dihydro-[1,8]naphthyridine-3-carboxylic acid]
[1]
  MIC: > 16 µg/mL
[2]
  MIC: > 16 µg/mL
[3]
  MIC: 0.5 µg/mL (≈ 1.29 µM)
[4]
  MIC: > 16 µg/mL
[5]
  MIC: 4 µg/mL (≈ 10.3 µM)

## CCOC(=O)C1=NOC2CN(c3nc4c(cc3F)c(=O)c(C(=O)O)cn4-c3ccc(F)cc3F)CC12 (centres unmarked) [ID No. 106, 1-(2,4-Difluoro-phenyl)-7-(3-ethoxycarbonyl-3a,4,6,6a-tetrahydro-pyrrolo[3,4-d]isoxazol-5-yl)-6-fluoro-4-oxo-1,4-dihydro-[1,8]naphthyridine-3-carboxylic acid]
[1]
  MIC: > 16 µg/mL
[2]
  MIC: > 16 µg/mL
[3]
  MIC: 0.12 µg/mL (≈ 0.239 µM)
[4]
  MIC: > 16 µg/mL
[5]
  MIC: 8 µg/mL (≈ 15.9 µM)

## COc1c(N2C[C@@H]3ON=C(c4cccnc4)[C@@H]3C2)c(F)cc2c(=O)c(C(=O)O)cn(C3CC3)c12 (relative stereo) [ID No. 123, 7-[cis-3-(3-Pyridyl)-3a,4,6,6a-tetrahydropyrrolo[3,4-d]isoxazol-5-yl]-1-cyclopropyl-8-methoxy-6-fluoro-4-oxo-1,4-dihydroquinoline-3-carboxylic acid]
[1]
  MIC: 8 µg/mL (≈ 17.2 µM)
[2]
  MIC: 8 µg/mL (≈ 17.2 µM)
[3]
  MIC: 0.06 µg/mL (≈ 0.129 µM)
[4]
  MIC: 2 µg/mL (≈ 4.31 µM)
[5]
  MIC: 0.5 µg/mL (≈ 1.08 µM)

## NCC1=NOC2CN(c3nc4c(cc3F)c(=O)c(C(=O)O)cn4-c3ccc(F)cc3F)CC12 (centres unmarked) [ID No. 200, 7-(3-Aminomethyl-3a,4,6,6a-tetrahydro-pyrrolo[3,4-d]isoxazol-5-yl)-1-(2,4-difluoro-phenyl)-6-fluoro-4-oxo-1,4-dihydro-[1,8]naphthyridine-3-carboxylic acid]
[1]
  MIC: > 16 µg/mL
[2]
  MIC: > 16 µg/mL
[3]
  MIC: 0.12 µg/mL (≈ 0.261 µM)
[4]
  MIC: > 16 µg/mL
[5]
  MIC: 1 µg/mL (≈ 2.18 µM)

## C[C@H]1COc2c(N3CC4ON=C(c5ccccn5)C4C3)c(F)cc3c(=O)c(C(=O)O)cn1c23 (some centres unmarked) [ID No. 129]
[1]
  MIC: 16 µg/mL (≈ 35.5 µM)
[2]
  MIC: > 16 µg/mL
[3]
  MIC: 0.06 µg/mL (≈ 0.133 µM)
[4]
  MIC: 4 µg/mL (≈ 8.88 µM)
[5]
  MIC: 1 µg/mL (≈ 2.22 µM)

## O=C(O)c1cn(C2CC2)c2nc(N3CC4ON=C(c5ccc(C(F)(F)F)nc5)C4C3)c(F)cc2c1=O (centres unmarked) [ID No. 112, 1-Cyclopropyl-6-fluoro-4-oxo-7-[3-(6-trifluoromethyl-pyridin-3-yl)-3a,4,6,6a-tetrahydro-pyrrolo[3,4-d]isoxazol-5-yl]-1,4-dihydro-[1,8]naphthyridine-3-carboxylic acid]
[1]
  MIC: > 16 µg/mL
[2]
  MIC: 16 µg/mL (≈ 31.8 µM)
[3]
  MIC: 0.25 µg/mL (≈ 0.497 µM)
[4]
  MIC: 8 µg/mL (≈ 15.9 µM)
[5]
  MIC: 2 µg/mL (≈ 3.97 µM)

## O=C(O)c1cn(C2CC2)c2cc(N3CC4ON=C(c5ccccn5)C4C3)c(F)cc2c1=O (centres unmarked) [ID No. 135, 1-Cyclopropyl-6-fluoro-7-[3-(pyridin-2-yl)-3a,4,6,6a-tetrahydro-pyrrolo[3,4-d]isoxazol-5-yl]-4-oxo-1,4-dihydro-quinoline-3-carboxylic acid]
[1]
  MIC: 2 µg/mL (≈ 4.6 µM)
[2]
  MIC: 8 µg/mL (≈ 18.4 µM)
[3]
  MIC: 0.03 µg/mL (≈ 0.0691 µM)
[4]
  MIC: 4 µg/mL (≈ 9.21 µM)
[5]
  MIC: 1 µg/mL (≈ 2.3 µM)

## O=C(O)c1cn(C2CC2)c2nc(N3CC4ON=C(c5ccccn5)C4C3)c(F)cc2c1=O (centres unmarked) [ID No. 113, 1-Cyclopropyl-6-fluoro-4-oxo-7-(3-pyridin-2-yl-3a,4,6,6a-tetrahydro-pyrrolo[3,4-d]isoxazol-5-yl)-1,4-dihydro-[1,8]naphthyridine-3-carboxylic acid]
[1]
  MIC: 2 µg/mL (≈ 4.59 µM)
[2]
  MIC: 16 µg/mL (≈ 36.7 µM)
[3]
  MIC: 0.06 µg/mL (≈ 0.138 µM)
[4]
  MIC: 4 µg/mL (≈ 9.19 µM)
[5]
  MIC: 1 µg/mL (≈ 2.3 µM)

## COc1c(N2C[C@@H]3ON=C(c4ccccn4)[C@@H]3C2)ccc2c(=O)c(C(=O)O)cn(C3CC3)c12 (relative stereo) [ID No. 150, 7-[cis-3-(2-pyridyl)-3a,4,6,6a-tetrahydropyrrolo[3,4-d]isoxazol-5-yl]-1-cyclopropyl-8-methoxy-4-oxo-1,4-dihydroquinoline-3-carboxylic acid]
[1]
  MIC: 8 µg/mL (≈ 17.9 µM)
[2]
  MIC: > 16 µg/mL
[3]
  MIC: 0.06 µg/mL (≈ 0.134 µM)
[4]
  MIC: 8 µg/mL (≈ 17.9 µM)
[5]
  MIC: 1 µg/mL (≈ 2.24 µM)

## O=C(O)c1cn(C2CC2)c2nc(N3CC4ON=C(CN5C(=O)c6ccccc6C5=O)C4C3)c(F)cc2c1=O (centres unmarked) [ID No. 118, 1-Cyclopropyl-7-[3-(1,3-dioxo-1,3-dihydro-isoindol-2-ylmethyl)-3a,4,6,6a-tetrahydro-pyrrolo[3,4-d]isoxazol-5-yl]-6-fluoro-4-oxo-1,4-dihydro-[1,8]naphthyridine-3-carboxylic acid]
[1]
  MIC: > 16 µg/mL
[2]
  MIC: > 16 µg/mL
[3]
  MIC: 2 µg/mL (≈ 3.86 µM)
[4]
  MIC: > 16 µg/mL
[5]
  MIC: 16 µg/mL (≈ 30.9 µM)

## COc1ccc(C2=NOC3CN(c4cc5c(cc4F)c(=O)c(C(=O)O)cn5C4CC4)CC23)cn1 (centres unmarked) [ID No. 134, 1-Cyclopropyl-6-fluoro-7-[3-(6-methoxy-pyridin-3-yl)-3a,4,6,6a-tetrahydro-pyrrolo[3,4-d]isoxazol-5-yl]-4-oxo-1,4-dihydro-quinoline-3-carboxylic acid]
[1]
  MIC: > 16 µg/mL
[2]
  MIC: 16 µg/mL (≈ 34.4 µM)
[3]
  MIC: 0.12 µg/mL (≈ 0.258 µM)
[4]
  MIC: 8 µg/mL (≈ 17.2 µM)
[5]
  MIC: 2 µg/mL (≈ 4.31 µM)

## CCOC(=O)C1=NOC2CN(c3c(F)cc4c(=O)c(C(=O)O)cn5c4c3OC[C@@H]5C)CC12 (stereo partly drawn) [ID No. 131, 7-[cis-3-(ethoxycarbonyl)-3a,4,6,6a-tetrahydropyrrolo[3,4-d]isoxazol-5-yl]S-(−)-9,10-difluoro-2,3-dihydro-3-methyl-7-oxo-7H-pyrido-[1,2,3-de][1,4]-benzoxazine-6-carboxylic acid]
[1]
  MIC: > 16 µg/mL
[2]
  MIC: > 16 µg/mL
[3]
  MIC: 1 µg/mL (≈ 2.25 µM)
[4]
  MIC: > 16 µg/mL
[5]
  MIC: 16 µg/mL (≈ 35.9 µM)

## COc1c(N2C[C@@H]3ON=C(c4ccccn4)[C@@H]3C2)c(F)cc2c(=O)c(C(=O)O)cn(C3CC3)c12 (relative stereo) [ID No. 122, 7-[cis-3-(2-pyridyl)-3a,4,6,6a-tetrahydropyrrolo[3,4-d]isoxazol-5-yl]-1-cyclopropyl-8-methoxy-6-fluoro-4-oxo-1,4-dihydroquinoline-3-carboxylic acid]
[1]
  MIC: 16 µg/mL (≈ 34.4 µM)
[2]
  MIC: 16 µg/mL (≈ 34.4 µM)
[3]
  MIC: < 0.12 µg/mL
[4]
  MIC: 2 µg/mL (≈ 4.31 µM)
[5]
  MIC: 1 µg/mL (≈ 2.15 µM)

## O=C(O)c1cn(-c2ccc(F)cc2F)c2nc(N3CC4ON=C(c5ccccn5)C4C3)c(F)cc2c1=O (centres unmarked) [ID No. 104, 1-(2,4-Difluoro-phenyl)-6-fluoro-4-oxo-7-(3-pyridin-2-yl-3a,4,6,6a-tetrahydro-pyrrolo[3,4-d]isoxazol-5-yl)-1,4-dihydro-[1,8]naphthyridine-3-carboxylic acid]
[1]
  MIC: 2 µg/mL (≈ 3.94 µM)
[2]
  MIC: 0.5 µg/mL (≈ 0.985 µM)
[3]
  MIC: 0.06 µg/mL (≈ 0.118 µM)
[4]
  MIC: 4 µg/mL (≈ 7.88 µM)
[5]
  MIC: 1 µg/mL (≈ 1.97 µM)

## O=C(O)c1cn(-c2ccc(F)cc2F)c2nc(N3CC4ON=C(c5ccc(C(F)(F)F)nc5)C4C3)c(F)cc2c1=O (centres unmarked) [ID No. 103, 1-(2,4-Difluoro-phenyl)-6-fluoro-4-oxo-7-[3-(6-trifluoromethyl-pyridin-3-yl)-3a,4,6,6a-tetrahydro-pyrrolo[3,4-d]isoxazol-5-yl]-1,4-dihydro-[1,8]naphthyridine-3-carboxylic acid]
[1]
  MIC: > 16 µg/mL
[2]
  MIC: 8 µg/mL (≈ 13.9 µM)
[3]
  MIC: 0.25 µg/mL (≈ 0.434 µM)
[4]
  MIC: 4 µg/mL (≈ 6.95 µM)
[5]
  MIC: 2 µg/mL (≈ 3.48 µM)

## O=C(O)c1cn(-c2ccc(F)cc2F)c2nc(N3CC4ON=C(c5cccnc5)C4C3)c(F)cc2c1=O (centres unmarked) [ID No. 105, 1-(2,4-Difluoro-phenyl)-6-fluoro-4-oxo-7-(3-pyridin-3-yl-3a,4,6,6a-tetrahydro-pyrrolo[3,4-d]isoxazol-5-yl)-1,4-dihydro-[1,8]naphthyridine-3-carboxylic acid]
[1]
  MIC: 2 µg/mL (≈ 3.94 µM)
[2]
  MIC: 0.5 µg/mL (≈ 0.985 µM)
[3]
  MIC: 0.06 µg/mL (≈ 0.118 µM)
[4]
  MIC: 2 µg/mL (≈ 3.94 µM)
[5]
  MIC: 1 µg/mL (≈ 1.97 µM)
